Measurements as given in patent US9682960B2 (priority 2013, dated 2017).
Read-outs that look alike come from different tables or passages of the source.

Experiments:
[1] = tested on: Shionogi mouse mammary carcinoma cells; test: In vitro androgenic/antiandrogenic activity: proliferation of Shionogi cells with or without DHT; type: cell-based; details: Mus musculus
Human Androgen Receptor = Human Androgen Receptor (Homo sapiens (Human), UniProt P10275); test: Androgen receptor assay: [3H]R1881 displacement, cytosol of HEK-293 cells transfected with hAR (hydroxylapatite assay); type: binding; details: relative binding affinity, R1881 = 100
[2] = tested on: castrated (CX) immature male rats; test: Systemic androgenic (agonistic) activity in orchidectomized (CX) immature male rats; type: in vivo, rat; details: 0.1 mg/rat/po, 7 days; for CX Agonistic activity % Stimulation Bulbo: bulbocavernosus muscles weight; for CX Agonistic activity % Stimulation SV: seminal vesicles weight; for CX Agonistic activity % Stimulation Prostate: ventral prostate weight
Description: Immature male rats (Crl:CD(SD)Br) 22 to 24-day old weighting 60-80 g at start of treatment were obtained from Charles-River, Inc. (St-Constant, Quebec, Canada) and housed up to 5 per cage in plastic bins in a temperature (23±1° C.)- and light (12 h light/day, lights on at 7 h15)-controlled environment. The rats were fed rodent chow and tap water ad libitum. […] The day following their arrival, the designed animals were orchidectomized (CX) under Isoflurane anesthesia (Study Day 1) via the scrotal route and were then randomly assigned to groups of 3 to 5 animals. At the time of orchidectomy, one silastic implant of dihydrotestosterone (DHT; 1 cm length of pure DHT in silastic tubing having inner and outer diameter of 0.078 and 0.125 inches, respectively), was inserted subcutaneously in the dorsal area of animals assigned to the evaluation of antiandrogenic activity. In the case of intact animal experiments, the orchidectomy and the silastic implant installation are omitted.
Tested compounds were administered orally once daily for 7 days from Study Day 2 to Study Day 8 at doses generally ranging from 0.1 and 0.5 mg/animal. Compounds were either solubilized in dimethylsulfoxide (DMSO, 10% final concentration) and were administered as a solution/suspension in 0.9% NaCl-1% gelatin or were administered as suspensions in 0.4% aqueous methylcellulose. Animals of the control groups received the corresponding vehicle alone during the 7-day period. Some animals were treated with the antiandrogen Flutamide or Casodex as reference. The animals under isoflurane anesthesia were killed by cervical dislocation on day 9 of the study, approximately 24 h after the last dosing. The ventral prostate, seminal vesicles and bulbocavernosus muscles were rapidly dissected and weighed.
For calculations with intact animals, control DHT is replaced by control intact and the % stimulation is subtracted by 100%. W is the weight of the prostate, seminal vesicles or bulbocavernosus muscles. Discussion

[3] = DHT (0.3 nM)-stimulated cell number, read-out: Shionogi Antiandrogenic Activity IC50
[4] = read-out: Shionogi Antiandrogenic Activity IC50, DHT (0.3 nM)-stimulated cell number

Chain of Human Androgen Receptor (P10275 whole entry): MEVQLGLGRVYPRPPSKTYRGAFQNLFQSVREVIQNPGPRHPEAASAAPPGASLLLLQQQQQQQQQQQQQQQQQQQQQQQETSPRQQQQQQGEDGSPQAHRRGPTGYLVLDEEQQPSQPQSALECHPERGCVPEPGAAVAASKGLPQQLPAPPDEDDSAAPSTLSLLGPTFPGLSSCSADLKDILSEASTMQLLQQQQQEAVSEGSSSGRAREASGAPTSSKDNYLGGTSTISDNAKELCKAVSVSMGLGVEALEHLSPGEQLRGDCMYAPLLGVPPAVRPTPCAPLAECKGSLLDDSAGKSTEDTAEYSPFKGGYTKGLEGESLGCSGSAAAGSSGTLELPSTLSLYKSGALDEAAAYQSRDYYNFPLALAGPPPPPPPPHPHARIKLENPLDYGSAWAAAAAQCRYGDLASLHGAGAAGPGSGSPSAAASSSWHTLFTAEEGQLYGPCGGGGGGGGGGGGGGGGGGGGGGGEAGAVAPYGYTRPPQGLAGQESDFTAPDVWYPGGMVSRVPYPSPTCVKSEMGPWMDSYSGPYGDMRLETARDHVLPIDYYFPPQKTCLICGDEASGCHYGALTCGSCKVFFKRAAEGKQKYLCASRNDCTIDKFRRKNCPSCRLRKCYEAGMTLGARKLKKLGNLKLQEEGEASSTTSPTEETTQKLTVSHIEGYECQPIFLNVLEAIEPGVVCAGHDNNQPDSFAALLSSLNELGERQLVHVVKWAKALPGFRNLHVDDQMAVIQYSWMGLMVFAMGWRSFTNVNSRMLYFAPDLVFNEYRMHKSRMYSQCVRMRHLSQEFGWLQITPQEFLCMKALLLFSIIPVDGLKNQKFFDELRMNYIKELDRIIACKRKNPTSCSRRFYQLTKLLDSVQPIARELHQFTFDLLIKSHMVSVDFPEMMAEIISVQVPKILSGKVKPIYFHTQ

With Cc1c(N2C(=O)C(C)(C)N(CCCOc3ccc(-c4ccncc4)c(F)c3)C2=S)ccc(C#N)c1C(F)(F)F [EM-8797] the IC50 [1, 3] was 108 nM, the “Human Androgen Receptor Binding RBA (%) R1881 = 100” value (Human Androgen Receptor; transfected cells) was 400% and the “CX Agonistic activity % Stimulation Bulbo” value [2] was 143%. For the same molecule, the “CX Agonistic activity % Stimulation SV” value [2] was 58% and the “CX Agonistic activity % Stimulation Prostate” value [2] was 50%.
With Cc1c(N2C(=O)C(C)(C)N(CCCOc3ccc(-c4ccncc4)cc3Cl)C2=S)ccc(C#N)c1C(F)(F)F [EM-8798] the IC50 [1, 4] was 130 nM, the “Human Androgen Receptor Binding RBA (%) R1881 = 100” value (Human Androgen Receptor; transfected cells) was 219% and the “CX Agonistic activity % Stimulation Bulbo” value [2] was 114%. The “CX Agonistic activity % Stimulation SV” value [2] was 25% and the “CX Agonistic activity % Stimulation Prostate” value [2] was 49%.
In the case of Cc1c(N2C(=O)C(C)(C)N(CCCOc3ccc(-c4ccncc4)cc3Cl)C2=S)ccc(C#N)c1Cl [EM-8799], the IC50 [1, 4] is reported as 116 nM, the “Human Androgen Receptor Binding RBA (%) R1881 = 100” value (Human Androgen Receptor; […]) is reported as 877% and the “CX Agonistic activity % Stimulation Bulbo” value [2] is reported as 126%. For the same molecule, the “CX Agonistic activity % Stimulation SV” value [2] was 55% and the “CX Agonistic activity % Stimulation Prostate” value [2] was 58%.
For Cc1c(N2C(=O)C(C)(C)N(CCCOc3ccc(-c4ccncc4)cn3)C2=S)ccc(C#N)c1Cl [EM-8815], the IC50 [1, 4] was 80 nM, the “Human Androgen Receptor Binding RBA (%) R1881 = 100” value (Human Androgen Receptor; transfected cells) was 159% and the “CX Agonistic activity % Stimulation Bulbo” value [2] was 163%. For the same molecule, the “CX Agonistic activity % Stimulation SV” value [2] was 75% and the “CX Agonistic activity % Stimulation Prostate” value [2] was 59%.
Cc1c(N2C(=O)C(C)(C)N(CCCOc3ccc(-c4ccncc4)c(C(F)(F)F)c3)C2=S)ccc(C#N)c1Cl [EM-8820] was tested, and the IC50 [1, 4] was 21.8 nM, the “Human Androgen Receptor Binding RBA (%) R1881 = 100” value (Human Androgen Receptor; transfected cells) was 263% and the “CX Agonistic activity % Stimulation Bulbo” value [2] was 154%. The “CX Agonistic activity % Stimulation SV” value [2] was 58% and the “CX Agonistic activity % Stimulation Prostate” value [2] was 33%.
Cc1c(N2C(=O)C(C)(C)N(CCCOc3ccc(-c4ccncc4)nc3)C2=S)ccc(C#N)c1Cl [EM-8827] was tested, and the IC50 [1, 4] was 118 ± 14 nM, the “Human Androgen Receptor Binding RBA (%) R1881 = 100” value (Human Androgen Receptor; […]) was 113% and the “CX Agonistic activity % Stimulation Bulbo” value [2] was 133%. For the same molecule, the “CX Agonistic activity % Stimulation SV” value [2] was 38% and the “CX Agonistic activity % Stimulation Prostate” value [2] was 41%.
In the case of Cc1c(N2C(=O)C(C)(C)N(CCCOc3ccc(Oc4ccc(Cl)nc4)nc3)C2=S)ccc(C#N)c1Cl [EM-8828], the IC50 [1, 4] is reported as 96.5 nM, the “Human Androgen Receptor Binding RBA (%) R1881 = 100” value (Human Androgen Receptor; […]) is reported as 112% and the “CX Agonistic activity % Stimulation Bulbo” value [2] is reported as 161%. For the same molecule, the “CX Agonistic activity % Stimulation SV” value [2] was 31% and the “CX Agonistic activity % Stimulation Prostate” value [2] was 40%.
For Cc1c(N2C(=O)C(C)(C)N(CCCOc3ccc4cnccc4c3)C2=S)ccc(C#N)c1Cl [EM-8869], the IC50 [1, 3] was ~1000 nM, the “Human Androgen Receptor Binding RBA (%) R1881 = 100” value (Human Androgen Receptor; transfected cells) was 56% and the “CX Agonistic activity % Stimulation Bulbo” value [2] was 101%. For the same molecule, the “CX Agonistic activity % Stimulation SV” value [2] was 18% and the “CX Agonistic activity % Stimulation Prostate” value [2] was 31%.
In the case of Cc1c(N2C(=O)C(C)(C)N(CCCOc3ccc(-c4ccncc4)c(Cl)c3)C2=S)ccc(C#N)c1Cl [EM-8887], the IC50 [1, 4] is reported as 133 nM, the “Human Androgen Receptor Binding RBA (%) R1881 = 100” value (Human Androgen Receptor; […]) is reported as 1890 ± 1040 (n = 2) % and the “CX Agonistic activity % Stimulation Bulbo” value [2] is reported as 214%. For the same molecule, the “CX Agonistic activity % Stimulation SV” value [2] was 107% and the “CX Agonistic activity % Stimulation Prostate” value [2] was 55%.
For Cc1c(N2C(=O)C(C)(C)N(CCCOc3ccc(-c4cc[n+]([O-])cc4)cc3)C2=S)ccc(C#N)c1Cl [EM-8913], the IC50 [1, 4] was > 100 nM, the “Human Androgen Receptor Binding RBA (%) R1881 = 100” value (Human Androgen Receptor; […]) was 114% and the “CX Agonistic activity % Stimulation Bulbo” value [2] was 160%. For the same molecule, the “CX Agonistic activity % Stimulation SV” value [2] was 65% and the “CX Agonistic activity % Stimulation Prostate” value [2] was 54%.
For Cc1c(N2C(=O)C(C)(C)N(CCCOc3ccc(-c4ccnc(F)c4)cc3)C2=S)ccc(C#N)c1Cl [EM-8922], the IC50 [1, 4] was 79 nM, the “Human Androgen Receptor Binding RBA (%) R1881 = 100” value (Human Androgen Receptor; […]) was 414% and the “CX Agonistic activity % Stimulation Bulbo” value [2] was 134%. The “CX Agonistic activity % Stimulation SV” value [2] was 54% and the “CX Agonistic activity % Stimulation Prostate” value [2] was 52%.
In the case of Cc1c(N2C(=O)C(C)(C)N(CCCOc3ccc(-c4ccncc4)c(C#N)c3)C2=S)ccc(C#N)c1Cl [EM-8933], the IC50 [1, 4] is reported as 110 nM, the “Human Androgen Receptor Binding RBA (%) R1881 = 100” value (Human Androgen Receptor; […]) is reported as 134% and the “CX Agonistic activity % Stimulation Bulbo” value [2] is reported as 136%. For the same molecule, the “CX Agonistic activity % Stimulation SV” value [2] was 43% and the “CX Agonistic activity % Stimulation Prostate” value [2] was 46%.
For Cc1c(N2C(=O)C(C)(C)N(CCCOc3ccc(-c4ccncc4F)cc3)C2=S)ccc(C#N)c1C(F)(F)F [EM-8974], the IC50 [1, 4] was 112 nM, the “Human Androgen Receptor Binding RBA (%) R1881 = 100” value (Human Androgen Receptor; […]) was 41.9% and the “CX Agonistic activity % Stimulation Bulbo” value [2] was 139%. The “CX Agonistic activity % Stimulation SV” value [2] was 24% and the “CX Agonistic activity % Stimulation Prostate” value [2] was 61%.
Cc1c(N2C(=O)C(C)(C)N(CCCOc3ccc(-c4ccncc4Cl)cc3)C2=S)ccc(C#N)c1Cl [EM-8977] was tested, and the IC50 [1, 4] was 100 nM, the “Human Androgen Receptor Binding RBA (%) R1881 = 100” value (Human Androgen Receptor; […]) was 89.8% and the “CX Agonistic activity % Stimulation Bulbo” value [2] was 194%. For the same molecule, the “CX Agonistic activity % Stimulation SV” value [2] was 65% and the “CX Agonistic activity % Stimulation Prostate” value [2] was 72%.
